For data set [1], the system named is platelets. The settings on record: animals and/or humans; cited from earlier work.
The test system of data set [2] is venetoclax resistant CLL cells. The settings on record: cited from earlier work.
In data set [3] the test system is WI-38 NC. As to the kind of experiment: Senolytic activity, cell viability (PrestoBlue HS), WI-38 NC. The settings on record: Homo sapiens, 72 h. It counts as cell-based. Here is the method: (§1) WI-38 and HUVEC cells were incubated with increasing concentrations of degraders for 72 h. Cell viability was measured using PrestoBlue HS cell viability reagent.
Data set [4] has as its system RS4;11 acute lymphoblastic leukemia cells. Put plainly: Cell viability, tetrazolium-based MTS assay, RS4;11. The following applies: Homo sapiens, RS4;11, 48 h, read-out: Anti-Cancer Activity EC50 (48 hr), RS4. Here is the method: (§2) Acute lymphoblastic leukemia cells (MOLT-4 and RS4;11) were incubated with increasing concentrations of Bcl-xL/Bcl-2 degraders for 48 h. Cell viability was measured by tetrazolium-based MTS assay.
(In general: Tetrazolium assays rely on reduction of a dye to a coloured formazan, in cell work by metabolically active cells.)

Data set [5] concerns the target T1, Bcl-xL (Homo sapiens, UniProt Q07817).
T1 construct: immunoblot after 16 h degrader treatment
Put plainly: Bcl-xL protein degradation in Jurkat cells (immunoblot). It is filed as cell-based. The settings on record: 16 h. As for the experimental part: (§3) Jurkat and Hela cells were incubated with increasing concentrations of test compounds for 16 h. The cells were harvested and lysed in RIPA lysis buffer supplemented with protease and phosphatase inhibitor cocktails. An equal amount of protein (20 μg/lane) was resolved on a pre-cast 4-20% SDS-PAGE gel. Proteins were subsequently transferred to NOVEX PVDF membranes by electrophoresis. The membranes were blocked in blocking buffer (5% non-fat dry milk in TBS-T), and incubated with primary antibodies (at optimized concentrations) overnight at 4° C. After three washings in TBS-T, the membranes were incubated with an appropriate FIRP-conjugated secondary antibody for 1 h at room temperature. After extensive washing for three times, the proteins of interest were detected with ECL western blotting detection reagents and recorded with autoradiography (Pierce Biotech, Rockford, IL, USA). The primary antibodies for Bcl-xL (Cat #2762), Bcl-2 (Cat #2872), Bcl-w (Cat #2724) and β-actin (Cat #4970) were purchased from Cell Signaling Technology. The relative band intensity was measured using ImageJ software and normalized to β-actin.
In general terms: Immunoblotting shows a protein as a band on a membrane.

Data set [6] has as its system MOLT-4 acute lymphoblastic leukemia cells. As to the kind of experiment: Cell viability, tetrazolium-based MTS assay, MOLT-4. The following applies: Homo sapiens, MOLT-4, 48 h; read-out: Anti-Cancer Activity EC50 (48 hr), MOLT-4. As for the experimental part: as §2
The subject of data set [7] is WI-38 irradiation-induced senescent cells (IR-SC). Put plainly: Senolytic activity, cell viability (PrestoBlue HS), WI-38 IR-SC. The following applies: Homo sapiens, 72 h. It counts as cell-based. As for the experimental part: (§4) To induce senescence in WI-38 and HUVEC, cells were subjected to x-ray irradiation at 20 Gray using X-RAD 320 biological irradiator. Following between 10 to 15 days after irradiation, senescence was induced in cells, and irradiation-induced senescent cells (IR-SC) were then used for cell viability and Western blotting tests.
as §1

For data set [8], the target named is T1, Bcl-xL. Put plainly: Bcl-xL protein degradation in Hela cells (immunoblot). It counts as cell-based. The following applies: 16 h. As for the experimental part: as §3
The subject of data set [9] is HUVEC irradiation-induced senescent cells (IR-SC). Put plainly: Senolytic activity, cell viability (PrestoBlue HS), HUVEC IR-SC. It counts as cell-based. The following applies: Homo sapiens, 72 h. Here is the method:
as §4, §1

Data set [10] has as its system HUVEC NC. As to the kind of experiment: Senolytic activity, cell viability (PrestoBlue HS), HUVEC NC. It is filed as cell-based. Here is the method: as §1

Molecules are shown by their SMILES. pEC50: −log10 of the molar value.

T1 sequence (Q07817 whole entry): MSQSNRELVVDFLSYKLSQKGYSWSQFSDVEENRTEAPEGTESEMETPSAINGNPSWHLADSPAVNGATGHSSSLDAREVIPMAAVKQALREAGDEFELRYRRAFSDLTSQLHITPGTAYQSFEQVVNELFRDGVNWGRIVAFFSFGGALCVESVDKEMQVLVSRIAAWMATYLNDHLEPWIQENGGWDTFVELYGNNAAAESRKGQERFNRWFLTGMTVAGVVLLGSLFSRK
T1 sequence (Q96SW2 whole entry partner): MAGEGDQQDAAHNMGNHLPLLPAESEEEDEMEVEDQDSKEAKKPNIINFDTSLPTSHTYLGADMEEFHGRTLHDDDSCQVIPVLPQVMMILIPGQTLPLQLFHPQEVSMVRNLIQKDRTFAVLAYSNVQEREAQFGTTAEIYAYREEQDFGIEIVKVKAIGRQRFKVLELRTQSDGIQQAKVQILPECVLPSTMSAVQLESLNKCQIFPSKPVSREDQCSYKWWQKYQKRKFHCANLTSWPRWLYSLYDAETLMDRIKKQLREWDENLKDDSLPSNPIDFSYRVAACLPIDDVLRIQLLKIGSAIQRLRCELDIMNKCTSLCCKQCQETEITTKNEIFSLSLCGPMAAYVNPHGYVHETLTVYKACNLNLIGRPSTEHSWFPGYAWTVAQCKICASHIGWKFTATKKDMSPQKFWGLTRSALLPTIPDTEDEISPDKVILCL

Turning to `CC1(C)CCC(c2ccc(Cl)cc2)=C(CN2CCN(c3ccc(C(=O)NS(=O)(=O)c4ccc(N[C@H](CCN5CCOCC5)CSc5ccccc5)c(S(=O)(=O)C(F)(F)F)c4)cc3)CC2)C1` [ABT-263, navitoclax], the dose-limiting thrombocytopenia result in data set [1] is recorded as “dose-limiting thrombocytopenia has been observed”. In data set [2], the “efficacy in killing venetoclax resistant CLL cells” value is on record as “high efficacy”.
For the molecule `CN(C)CC[C@H](CSc1ccccc1)Nc1ccc(S(=O)(=O)NC(=O)c2ccc(N3CCN(Cc4ccccc4-c4ccc(Cl)cc4)CC3)cc2)cc1[N+](=O)[O-]` [ABT-737], the dose-limiting thrombocytopenia entry in data set [1] is on record as “dose-limiting thrombocytopenia has been observed”.
Take `Cc1c(S(C)(=O)=O)c(-c2cc(F)cc(N3CCN(c4ccc(NS(=O)(=O)c5ccc(N[C@H](CCN6CCC(O)CC6)CSc6ccccc6)c(S(=O)(=O)C(F)(F)F)c5)cc4)CC3)c2)c(-c2ccc(Cl)cc2)n1C(C)C` [BM-1197]: the dose-limiting thrombocytopenia entry in data set [1] is listed as “dose-limiting thrombocytopenia has been observed”.
For `C[C@@]1(CN2CCC(CN3CCN(c4ccc5c(c4)CN(C4CCC(=O)NC4=O)C5=O)CC3)CC2)CCC(c2ccc(Cl)cc2)=C(CN2CCN(c3ccc(C(=O)NS(=O)(=O)c4ccc(N[C@H](CCN5CCCOCC5)CSc5ccccc5)c(S(=O)(=O)C(F)(F)F)c4)cc3)CC2)C1` (stereo partly drawn) [Compound 11, N-((4-(((R)-4-(1,4-oxazepan-4-yl)-1-(phenylthio)butan-2-yl)amino)-3-((trifluoromethyl)sulfonyl)phenyl)sulfonyl)-4-(4-(((4R)-4′-chloro-4-((4-((4-(2-(2,6-dioxopiperidin-3-yl)-1-oxoisoindolin-5-yl)piperazin-1-yl)methyl)piperidin-1-yl)methyl)-4-methyl-3,4,5,6-tetrahydro-[1,1′-biphenyl]-2-yl)methyl)piperazin-1-yl)benzamide], the pEC50 in data set [3] is less than 5.00; in [4] it was more than 9.00; in data set [6], more than 9.00; in data set [7], 8.00 to 9.00; in [9] it was more than 9.00. Also, the “degradation of Bcl-xL” value in data set [5] and in data set [8] was “degrade Bcl-xL in a dose-dependent manner” each time.
Turning to `C[C@@]1(CN2CCC(CN3CCCN(c4ccc5c(c4)CN(C4CCC(=O)NC4=O)C5=O)CC3)CC2)CCC(c2ccc(Cl)cc2)=C(CN2CCN(c3ccc(C(=O)NS(=O)(=O)c4ccc(N[C@H](CCN5CCCOCC5)CSc5ccccc5)c(S(=O)(=O)C(F)(F)F)c4)cc3)CC2)C1` (stereo partly drawn) [Compound 44, N-((4-(((R)-4-(1,4-oxazepan-4-yl)-1-(phenylthio)butan-2-yl)amino)-3-((trifluoromethyl)sulfonyl)phenyl)sulfonyl)-4-(4-(((4R)-4′-chloro-4-((4-((4-(2-(2,6-dioxopiperidin-3-yl)-1-oxoisoindolin-5-yl)-1,4-diazepan-1-yl)methyl)piperidin-1-yl)methyl)-4-methyl-3,4,5,6-tetrahydro-[1,1′-biphenyl]-2-yl)methyl)piperazin-1-yl)benzamide], the pEC50 in data set [3] was less than 5.00; in data set [4], more than 9.00; in data set [6] it was more than 9.00; in [7], 8.00 to 9.00; in data set [9], more than 9.00. Besides, the “degradation of Bcl-xL” value in [5] and in [8] was “degrade Bcl-xL in a dose-dependent manner” in each case. For the same molecule, the “Senolytic Activity EC50 (72 hr), HUVEC NC” value (shortened to “Senolytic Activity EC50”) in data set [10] is “++ (100-10 μM)”.
Consider `C[C@@]1(CN2CCC(c3ccc4c(c3)CN(C3CCC(=O)NC3=O)C4=O)CC2)CCC(c2ccc(Cl)cc2)=C(CN2CCN(c3ccc(C(=O)NS(=O)(=O)c4ccc(N[C@H](CCN5CCCOCC5)CSc5ccccc5)c(S(=O)(=O)C(F)(F)F)c4)cc3)CC2)C1` (stereo partly drawn) [Compound 128, N-((4-(((R)-4-(1,4-oxazepan-4-yl)-1-(phenylthio)butan-2-yl)amino)-3-((trifluoromethyl)sulfonyl)phenyl)sulfonyl)-4-(4-(((4R)-4′-chloro-4-((4-(2-(2,6-dioxopiperidin-3-yl)-1-oxoisoindolin-5-yl)piperidin-1-yl)methyl)-4-methyl-3,4,5,6-tetrahydro-[1,1′-biphenyl]-2-yl)methyl)piperazin-1-yl)benzamide], for which the pEC50 in [4] is more than 9.00; in data set [6], more than 9.00; in data set [7], 8.00 to 9.00; in data set [9], more than 9.00. Further, the “degradation of Bcl-xL” value in [5] and in data set [8] was “degrade Bcl-xL in a dose-dependent manner” in each case. Further, the “Senolytic Activity EC50” value in data set [10] is on record as “++ (100-10 μM)”.
Take `C[C@@]1(CN2CCC(CN3CCN(c4ccc5c(c4)C(=O)N(C4CCC(=O)NC4=O)C5)CC3)CC2)CCC(c2ccc(Cl)cc2)=C(CN2CCN(c3ccc(C(=O)NS(=O)(=O)c4ccc(N[C@H](CCN5CCCOCC5)CSc5ccccc5)c(S(=O)(=O)C(F)(F)F)c4)cc3)CC2)C1` (stereo partly shown) [Compound 134]: the pEC50 in data set [4] is more than 9.00; in data set [6], more than 9.00; in [7] it was 8.00 to 9.00; in data set [9], more than 9.00. Moreover, the “Senolytic Activity EC50” value in [10] is reported as “++ (100-10 μM)”.
As for `C[C@@]1(CN2CCCN(c3ccc4c(c3)CN(C3CCC(=O)NC3=O)C4=O)CC2)CCC(c2ccc(Cl)cc2)=C(CN2CCN(c3ccc(C(=O)NS(=O)(=O)c4ccc(N[C@H](CCN5CCCOCC5)CSc5ccccc5)c(S(=O)(=O)C(F)(F)F)c4)cc3)CC2)C1` (stereo partly drawn) [Compound 135, N-((4-(((R)-4-(1,4-oxazepan-4-yl)-1-(phenylthio)butan-2-yl)amino)-3-((trifluoromethyl)sulfonyl)phenyl)sulfonyl)-4-(4-(((4R)-4′-chloro-4-((4-(2-(2,6-dioxopiperidin-3-yl)-1-oxoisoindolin-5-yl)-1,4-diazepan-1-yl)methyl)-4-methyl-3,4,5,6-tetrahydro-[1,1′-biphenyl]-2-yl)methyl)piperazin-1-yl)benzamide], the pEC50 in data set [4] was more than 9.00; in data set [6] it was more than 9.00; in data set [7] it was 7.00 to 8.00; in data set [9], more than 9.00. The “Senolytic Activity EC50” value in [10] is reported as “++ (100-10 μM)”.
On to `CN(C)CC#Cc1ccc(OCCCc2sc(N3CCc4cccc(C(=O)Nc5nc6ccccc6s5)c4C3)nc2C(=O)O)c(F)c1` [Compound A-1155463], for which, in data set [1], the dose-limiting thrombocytopenia entry is “dose-limiting thrombocytopenia has been observed”.

Broadly, the pEC50 is −log10 of the EC50, conventionally taken in molar units.

The values are drawn from patent US20260355323A1, “CEREBLON-RECRUITING BCL-XL/BCL-2 DUAL DEGRADERS” (University of Florida Research Foundation, Incorporated, priority 2022, published 2026).
